Measurements taken from publication PMC2362906, “Effects of new 17α-hydroxylase/C17,20-lyase inhibitors on LNCaP prostate cancer cell growth in vitro and in vivo” (British Journal of Cancer, 1999).
“Also recorded” adds a separate entry of the source.

Experiments:
[1] = molecular target: human prostatic 5-reductase; set-up: method as in Njar et al, 1998; conditions: human prostatic microsomes; reported previously; ref Njar et al, 1998; cited from earlier work
[2] = molecular target: T1, human 17α-hydroxylase/C17,20-lyase (P450c17) expressed in LNCaP-CYP17 cells (Homo sapiens, UniProt P05093); assay: [3H]-acetic acid releasing assay (AARA) with LNCaP-CYP17 cells; type: cell-based; conditions: LNCaP-CYP17 cells, 7 μM [21-3H]17-OHP5, 16 h; mean ± s.e.m., three experiments
T1 sequence (P05093 9-508 limits assumed): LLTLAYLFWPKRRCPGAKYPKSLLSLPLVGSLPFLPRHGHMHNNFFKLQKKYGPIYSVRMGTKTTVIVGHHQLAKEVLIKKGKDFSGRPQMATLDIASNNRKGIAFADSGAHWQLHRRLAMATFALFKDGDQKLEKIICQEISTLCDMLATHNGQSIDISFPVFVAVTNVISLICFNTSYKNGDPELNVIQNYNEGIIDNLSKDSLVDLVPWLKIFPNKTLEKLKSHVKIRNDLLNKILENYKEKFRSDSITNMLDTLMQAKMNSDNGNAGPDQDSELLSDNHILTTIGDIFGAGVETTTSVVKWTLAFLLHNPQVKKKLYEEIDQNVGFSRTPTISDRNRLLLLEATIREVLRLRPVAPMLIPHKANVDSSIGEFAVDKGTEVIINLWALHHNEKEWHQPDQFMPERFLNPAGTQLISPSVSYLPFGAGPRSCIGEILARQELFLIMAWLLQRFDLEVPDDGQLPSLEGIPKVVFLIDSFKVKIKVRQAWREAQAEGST

serum DHT = assay: Serum DHT (RIA) in SCID mice; type: in vivo, male SCID mice; conditions: 28 days of treatment, 50 mg kg-1 day-1
Source text: (§1) Prostate cancer is the most common malignancy and the second leading cause of cancer-related deaths among men in the US and the UK (Shibata et al, 1998). […] Steroidal 17-hydroxylase/C17,20 -lyase (P450c17) (EC 1.14.99.0) was selected as the target enzyme for inhibition, as this is a key regulatory enzyme of androgen synthesis. P450c17 catal- yses two sequential reactions in the steroid biosynthetic pathway and converts pregnenolone and progesterone to the C-19 andro- gens, dehydroepiandrosterone and androstenedione respectively. This enzyme has an identical amino acid sequence in testicular and adrenal tissues (Chung et al, 1987). […] In order to evaluate the effectiveness of these inhibitors we developed a multi-step system, which utilized the LNCaP human prostate cancer cell line. LNCaP cells remain the only androgen receptor (AR)-positive prostate cancer cell line, that can be readily grown in tissue culture (Horoszewicz et al, 1983). These cells respond to androgens with increased cell proliferation and elevated expression of prostate specific antigen (PSA) (Berns et al, 1993). LNCaP cells at early passages are not only androgen-responsive, but also androgen- dependent (Pousette et al, 1997). This is similar to the situation in most tumours of prostatic cancer patients, which are initially highly responsive and dependent on androgens. […] Therefore, we employed LNCaP cells as a model for evaluating the effectiveness of our new inhibitors of androgen synthesis. In this study the compounds selected for evaluation were two groups of azolyl steroids. […] Here we report on the application of LNCaP-CYP17-transfected cells for determining the inhibitory potencies of the new compounds against the P450c17 enzyme. […] We designed and evaluated two groups of azolyl steroids: 5-non-competitive inhibitors (5NCIs), VN/63-1, VN/85-1, VN/87-1 and their corresponding 4 derivatives (4NCIs), VN/107-1, VN/108-1 and VN/109-1. The human P450c17 gene was transfected into LNCaP human prostate cancer cells, and the resultant LNCaP- CYP17 cells were utilized to evaluate the inhibitory potency of the new azolyl steroids. […] We further evaluated our inhibitors in male severe combined immuno- deficient mice bearing LNCaP tumour xenografts. […] We also utilized wild-type LNCaP prostatic carcinoma cells for evaluating the direct effects of new azolyl steroids on proliferation of these cells in vitro and in vivo. MATERIALS AND METHODS Materials The human prostate cancer cell line LNCaP was obtained from the American Type Culture Collection (Rockville, MD, USA). RPMI- 1640 medium, trypsin-EDTA (0.25%/0.02%), penicillin/strepto- mycin (P/S), geniticin (G418), and LipofectAMINE were from Gibco-BRL (Grand Island, NY, USA). Fetal bovine serum (FBS) was obtained from Summit Biotechnology Inc. (Fort Collins, CO, USA) and steroid-free FBS was prepared as described previously (Klus et al, 1996). Phenol red free IMEM and trypsin-versine were purchased from Biofluids Inc. (Rockville, MD, USA). Chloroform and acetonitrile were purchased from JT Baker, Inc (Phillipsburg, NJ, USA). Hydroxypropyl cellulose (HPC) was purchased from Sigma Chemical Co. (St Louis, MO, USA). The PSA enzyme- linked immunusorbent assay (ELISA) kit was from DSL Inc. (Webster, TX, USA). Matrigel was generously supplied by Dr Hynda Kleinman (NIH, Bethesda, MD, USA). Inhibitors of androgen synthesis: VN/63-1, VN/85-1, VN/87-1, VN/107-1, VN/108-1 and VN/109-1 were synthesized in our labo- ratory as previously described (Njar et al, 1998). […] Metribolone [17-methyl-3 H]-R1881 ([3 H]-R1881: specific activity 86 Ci mmol-1 ) was purchased from Dupont NEN (Boston, MA, USA).

LNCaP cells [3] = assay: Testosterone-stimulated wild-type LNCaP cell growth; type: cell-based, human; conditions: 0.1 nM testosterone, 9 days
Source text: as §1

LNCaP cells [4] = assay: DHT-stimulated wild-type LNCaP cell growth; type: cell-based, human; conditions: 0.03 nM DHT, 9 days
Source text: as §1

LNCaP tumour xenografts = assay: LNCaP tumour xenograft growth in male SCID mice; type: in vivo
Source text: as §1

serum PSA = assay: Serum PSA (ELISA) in LNCaP tumour-bearing SCID mice; type: in vivo, male SCID mice; conditions: 50 mg kg-1 day-1, 28 days
Source text: (§2) Prostate cancer is the most common malignancy and the second leading cause of cancer-related deaths among men in the US and the UK (Shibata et al, 1998). […] Steroidal 17-hydroxylase/C17,20 -lyase (P450c17) (EC 1.14.99.0) was selected as the target enzyme for inhibition, as this is a key regulatory enzyme of androgen synthesis. P450c17 catal- yses two sequential reactions in the steroid biosynthetic pathway and converts pregnenolone and progesterone to the C-19 andro- gens, dehydroepiandrosterone and androstenedione respectively. This enzyme has an identical amino acid sequence in testicular and adrenal tissues (Chung et al, 1987). […] In order to evaluate the effectiveness of these inhibitors we developed a multi-step system, which utilized the LNCaP human prostate cancer cell line. LNCaP cells remain the only androgen receptor (AR)-positive prostate cancer cell line, that can be readily grown in tissue culture (Horoszewicz et al, 1983). These cells respond to androgens with increased cell proliferation and elevated expression of prostate specific antigen (PSA) (Berns et al, 1993). LNCaP cells at early passages are not only androgen-responsive, but also androgen- dependent (Pousette et al, 1997). This is similar to the situation in most tumours of prostatic cancer patients, which are initially highly responsive and dependent on androgens. […] Therefore, we employed LNCaP cells as a model for evaluating the effectiveness of our new inhibitors of androgen synthesis. In this study the compounds selected for evaluation were two groups of azolyl steroids. […] Here we report on the application of LNCaP-CYP17-transfected cells for determining the inhibitory potencies of the new compounds against the P450c17 enzyme. […] We designed and evaluated two groups of azolyl steroids: 5-non-competitive inhibitors (5NCIs), VN/63-1, VN/85-1, VN/87-1 and their corresponding 4 derivatives (4NCIs), VN/107-1, VN/108-1 and VN/109-1. The human P450c17 gene was transfected into LNCaP human prostate cancer cells, and the resultant LNCaP- CYP17 cells were utilized to evaluate the inhibitory potency of the new azolyl steroids. […] We further evaluated our inhibitors in male severe combined immuno- deficient mice bearing LNCaP tumour xenografts. […] We also utilized wild-type LNCaP prostatic carcinoma cells for evaluating the direct effects of new azolyl steroids on proliferation of these cells in vitro and in vivo. MATERIALS AND METHODS Materials The human prostate cancer cell line LNCaP was obtained from the American Type Culture Collection (Rockville, MD, USA). RPMI- 1640 medium, trypsin-EDTA (0.25%/0.02%), penicillin/strepto- mycin (P/S), geniticin (G418), and LipofectAMINE were from Gibco-BRL (Grand Island, NY, USA). Fetal bovine serum (FBS) was obtained from Summit Biotechnology Inc. (Fort Collins, CO, USA) and steroid-free FBS was prepared as described previously (Klus et al, 1996). Phenol red free IMEM and trypsin-versine were purchased from Biofluids Inc. (Rockville, MD, USA). Chloroform and acetonitrile were purchased from JT Baker, Inc (Phillipsburg, NJ, USA). Hydroxypropyl cellulose (HPC) was purchased from Sigma Chemical Co. (St Louis, MO, USA). The PSA enzyme- linked immunusorbent assay (ELISA) kit was from DSL Inc. (Webster, TX, USA). Matrigel was generously supplied by Dr Hynda Kleinman (NIH, Bethesda, MD, USA). […]

LNCaP cells [5] = assay: LNCaP cell growth in steroid-free medium; type: cell-based, human
Source text: as §2, with “USA).” for “USA). Fetal bovine serum (FBS) was obtained from Summit Biotechnology Inc. (Fort Collins, CO, USA) and steroid-free FBS was prepared as described previously (Klus et al, 1996). Phenol red free IMEM and trypsin-versine were purchased from Biofluids Inc. (Rockville, MD, USA). Chloroform and acetonitrile were purchased from JT Baker, Inc (Phillipsburg, NJ, USA). Hydroxypropyl cellulose (HPC) was purchased from Sigma Chemical Co. (St Louis, MO, USA). The PSA enzyme- linked immunusorbent assay (ELISA) kit was from DSL Inc. (Webster, TX, USA). Matrigel was generously supplied by Dr Hynda Kleinman (NIH, Bethesda, MD, USA).”

serum testosterone = assay: Serum testosterone (RIA) in SCID mice; type: in vivo, male SCID mice; conditions: 28 days of treatment, 50 mg kg-1 day-1
Source text: as §1

[6] = Table 3, second experiment, control 239.2
[7] = second experiment, 50 mg kg-1 day-1, 28 days
[8] = Table 2, first experiment, control 243.8
[9] = first experiment, 50 mg kg-1 day-1, 28 days
[10] = Table 2, first experiment, control 1.043

Compound | IC50 [1] [nM] | IC50 [2] [nM] | Serum DHT (serum DHT; [6]) [pg/mL] | Serum PSA levels versus control (serum PSA; first experiment) | Serum DHT (serum DHT; [8]) [pg/mL] | Reduction of tumour weights compared to vehicle-treated mice (LNCaP tumour xenografts; [9]) [%] | Serum Testosterone (serum testosterone; [10]) [ng/mL] | also measured
C[C@]12CCC(=O)C=C1CC[C@@H]1[C@@H]2CC[C@]2(C)C(n3ccnn3)=CC[C@@H]12 [VN/109-1] | 198 | 5.39 | 228.4 | – | – | – | – | Effect on testosterone-stimulated cell growth (words) (LNCaP cells [3]; 0.5-5.0 μM compound): moderate inhibitory effect; also recorded: biphasic growth responses; Effect on DHT-induced cell proliferation (LNCaP cells [4]; 0.5-5.0 μM compound): least effective inhibitors of androgen-induced cell pro- liferation; Stimulation of LNCaP tumour growth compared to control mice (LNCaP tumour xenografts; [7]): 110%
C[C@]12CCC(=O)C[C@@H]1CC[C@@H]1[C@@H]2CC[C@]2(C)[C@@H](O)CC[C@@H]12 [DHT, Dihydrotestosterone, reference compound] | – | – | – | – | – | – | – | Stimulation of LNCaP cell proliferation compared to vehicle-treated cells (LNCaP cells [4]): 3.2 fold
CC(C)(C)NC(=O)[C@H]1CC[C@H]2[C@@H]3CC[C@H]4NC(=O)C=C[C@]4(C)[C@H]3CC[C@]12C [Finasteride, reference compound] | 33 | > 5000 | 223.4 | significantly lower | 137.0 | 22 | 1.389 | Serum PSA levels versus control (serum PSA; second experiment): significantly lower; inhibition at 5 µM (LNCaP cells [5]; Homo sapiens, LNCaP, 5 μM concentration): 25%; Inhibition of LNCaP cell growth in steroid-free media (LNCaP cells [5]; concentrations of 1.0-5.0 μM, 9 days): 20-30%; Inhibition of LNCaP tumour growth (tumour volume) (LNCaP tumour xenografts; [7]): 29%; Reduction of tumour weights (LNCaP tumour xenografts; [7]): 28%; Serum Testosterone (serum testosterone; Table 3, second experiment, control 0.205): 0.638 ng/mL
C[C@]12CC[C@H]3[C@@H](CCC4=CC(=O)CC[C@@]43C)[C@@H]1CC[C@@H]2O [Testosterone, reference compound] | – | – | – | – | – | – | – | Stimulation of LNCaP cell proliferation compared to vehicle-treated control cells (LNCaP cells [3]): 5.8 fold
C[C@]12CC[C@H](O)CC1=CC[C@@H]1[C@@H]2CC[C@]2(C)C(n3ccnn3)=CC[C@@H]12 [VN/87-1] | > 5000 | 7.97 | – | significantly lower | 128.6 | 31 | 0.343 | Inhibition of LNCaP tumour growth (tumour volume) (LNCaP tumour xenografts; first experiment, 50 mg kg-1 day-1, 4 weeks): 33%
